Nine compounds from PubChem BioAssay (NCI) can be followed below.

Test systems include HCC-2998 colon; HCT-116 colon; HCT-15 colon; LOX IMVI melanoma; NCI-H226 lung; OVCAR-3 ovarian; SN12C renal; TK-10 renal; U251 CNS; UO-31 renal.
Holding throughout (assay): NCI tumour cell line growth inhibition, 48 h

“And” between values parts separate entries of the source, which are not always exact repeats. Equal values may be shown once.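 Briefly, cells in 96-well plates were exposed to five compound concentrations for 48 h, and endpoints were estimated by linear interpolation. GI50 = concentration required for 50% inhibition of growth. TGI denotes the concentration required for complete inhibition of growth.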 Some results are limits rather than exact numbers.

On to `Cc1cccc2c(Nc3ccc(NS(C)(=O)=O)cc3)c3ccc([N+](=O)[O-])cc3nc12`, for which the GI50 is 1.49 µM in the test with HCC-2998 colon; 0.927 µM in the test on HCT-116 colon; 1.19 µM in the test on HCT-15 colon; 0.409 µM in the test on LOX IMVI melanoma; 0.755 µM with NCI-H226 lung; 1.45 µM with OVCAR-3 ovarian. Also, the GI50 is 0.486 µM in the test on SN12C renal, 3.16 µM in the test on TK-10 renal, 0.419 µM in the test on U251 CNS and 1.77 µM in the test on UO-31 renal. The TGI with HCC-2998 colon was 3.11 µM; in the test with HCT-116 colon, 5.24 µM; in the test with HCT-15 colon it was 3.54 µM; in the test with LOX IMVI melanoma, 2.13 µM; in the test on NCI-H226 lung, 4.08 µM; with OVCAR-3 ovarian it was 4.91 µM. Also, the TGI in the test with SN12C renal is 7.58 µM; in the test on TK-10 renal, 17.5 µM; in the test on U251 CNS, 6.36 µM; in the test with UO-31 renal it was 13 µM.
As for `C=CCn1c(=O)c2cnc(Nc3ccc(N4CCN(C)CC4)cc3)nc2n1-c1cccc(C(C)(C)O)n1`, the GI50 in the test with HCC-2998 colon is 0.388 µM and 1.13 µM; in the test with HCT-116 colon, 0.321 µM and 0.328 µM; with HCT-15 colon, 0.682 µM and 0.601 µM; with LOX IMVI melanoma, 0.433 µM and 0.537 µM; with NCI-H226 lung, 0.456 µM and 1.9 µM; in the test on OVCAR-3 ovarian, 0.241 µM and 0.331 µM. Moreover, the GI50 in the test with SN12C renal is 0.855 µM and 0.479 µM; in the test on TK-10 renal it was 0.1 µM and 0.31 µM; in the test on U251 CNS, 0.707 µM and 1.18 µM; in the test with UO-31 renal, 0.338 µM and 0.28 µM. Moreover, the TGI in the test with HCC-2998 colon was 7.26 µM and > 7.72 µM; with HCT-116 colon, 11.4 µM and > 10 µM; in the test with HCT-15 colon it was above 67.1 µM; in the test on LOX IMVI melanoma, 6.06 µM and > 7.93 µM; in the test with NCI-H226 lung it was 5.95 µM and > 7.68 µM; in the test on OVCAR-3 ovarian, 0.9 µM and 1.47 µM. In addition, the TGI is above 100 µM in the test on SN12C renal; 5.94 µM and > 10 µM in the test on TK-10 renal; 19.9 µM and > 10 µM with U251 CNS; 7.47 µM and > 10 µM with UO-31 renal.
For the compound `C[C@@H]1COCCN1c1cc(-c2ccnn2C)c2ccnc(-c3ccn[nH]3)c2n1`, the GI50 in the test with HCC-2998 colon is 0.0277 µM and 0.0581 µM; in the test on HCT-116 colon it was 0.159 µM and 0.228 µM; in the test on HCT-15 colon, 0.0344 µM and 0.0968 µM; in the test with LOX IMVI melanoma, 0.0572 µM and 0.118 µM; with NCI-H226 lung, 0.241 µM and 0.474 µM; with OVCAR-3 ovarian it was 0.223 µM and 0.406 µM. For the same compound, the GI50 in the test on SN12C renal is 0.184 µM and 0.314 µM; in the test with TK-10 renal it was 0.0715 µM and 0.313 µM; with U251 CNS, 0.26 µM and 1 µM; with UO-31 renal, 0.0741 µM and 0.152 µM. In addition, the TGI with HCC-2998 colon was 18.6 µM and > 100 µM; in the test with HCT-116 colon it was 16.3 µM and > 59 µM; with HCT-15 colon, above 100 µM; with LOX IMVI melanoma, 0.421 µM and 1.51 µM; with SN12C renal it was above 100 µM; in the test on TK-10 renal, 1.57 µM and 7 µM. The TGI with U251 CNS was 14.6 µM and > 100 µM; with UO-31 renal, 0.792 µM and 1.92 µM.
On to `Cc1cc(C)nc(NS(=O)(=O)c2ccc(NC(=O)c3cccn4c(=O)c5ccccc5nc34)cc2)n1`, for which the TGI is above 100 µM in the test with HCC-2998 colon; above 100 µM with HCT-116 colon; above 100 µM in the test on HCT-15 colon; 91.8 µM in the test with LOX IMVI melanoma; 97.3 µM in the test on NCI-H226 lung; above 100 µM in the test on SN12C renal. Moreover, the values for the TGI in the test with TK-10 renal, with U251 CNS and in the test on UO-31 renal were above 100 µM, above 100 µM and 74.7 µM, respectively.
For `COc1ccc(Oc2ccccc2NC(=O)CNC(=O)c2cccc3ccccc23)cc1`, the GI50 is 1.41 µM in the test on HCC-2998 colon; 0.61 µM in the test with HCT-116 colon; 0.59 µM with HCT-15 colon; 1.34 µM in the test on LOX IMVI melanoma; 4.3 µM with NCI-H226 lung; 0.387 µM in the test with OVCAR-3 ovarian. Moreover, the GI50 in the test on SN12C renal was 2.3 µM; in the test on TK-10 renal, 2.15 µM; in the test on U251 CNS, 1.06 µM; in the test on UO-31 renal it was 1.49 µM. The TGI in the test on HCC-2998 colon, with HCT-116 colon, in the test on HCT-15 colon, in the test on LOX IMVI melanoma, with NCI-H226 lung and in the test with OVCAR-3 ovarian was above 25 µM each time. Also, the TGI in the test on SN12C renal, with TK-10 renal, in the test on U251 CNS and in the test with UO-31 renal was above 25 µM throughout.
As to `COC(=O)C#CCC1CCCC1C1SCCS1` (stereo unspecified), the TGI in the test on HCC-2998 colon, in the test with HCT-116 colon, in the test on LOX IMVI melanoma, in the test with NCI-H226 lung, with OVCAR-3 ovarian and in the test on SN12C renal was above 100 µM throughout. Besides, the TGI in the test on TK-10 renal, in the test with U251 CNS and in the test with UO-31 renal was above 100 µM each time.
As for `N.N.N.N.N.O=S(=O)([O-])C(F)(F)F.O=S(=O)([O-])C(F)(F)F.[Os+8]`, the GI50 in the test with HCC-2998 colon is 7.02 µM; in the test with HCT-116 colon it was 5.37 µM; with HCT-15 colon it was 17 µM; in the test on LOX IMVI melanoma, 4.74 µM; in the test with NCI-H226 lung, 2.59 µM; in the test with SN12C renal, 12.7 µM. Also, the results for the GI50 in the test with TK-10 renal, in the test on U251 CNS and in the test on UO-31 renal were 33 µM, 9.22 µM and 12.8 µM, respectively. The TGI in the test on HCC-2998 colon is 20.2 µM; with HCT-116 colon, 18 µM; in the test with HCT-15 colon it was 56.4 µM; with LOX IMVI melanoma, 20 µM; in the test on NCI-H226 lung, 8.69 µM; in the test with SN12C renal, 37.3 µM. In addition, the TGI is 95.4 µM in the test on TK-10 renal, 32.5 µM with U251 CNS and 30.7 µM in the test with UO-31 renal.
Regarding `COc1ccc2c(c1)/C(=C\c1c[nH]c3ccc(OC)cc13)C(=O)N2`, the GI50 in the test with HCC-2998 colon was 3.77 µM; in the test with HCT-116 colon, 2.45 µM; with HCT-15 colon, 2.97 µM; with LOX IMVI melanoma, 3.25 µM; in the test on NCI-H226 lung, 4.59 µM; in the test with OVCAR-3 ovarian it was 3.65 µM. The GI50 was 3.07 µM in the test on SN12C renal, 3.68 µM with TK-10 renal and 2.53 µM in the test on UO-31 renal. The TGI came out at 14.7 µM with HCC-2998 colon; 10.6 µM with HCT-116 colon; 12.9 µM with HCT-15 colon; 13.6 µM in the test with LOX IMVI melanoma; 25.6 µM in the test on NCI-H226 lung; 13.6 µM in the test with OVCAR-3 ovarian. Besides, the TGI was 12.6 µM in the test with SN12C renal, 13.3 µM with TK-10 renal and 11.9 µM in the test with UO-31 renal.
Turning to `O=NN(CCCl)C(=O)NC1CCC(=O)NC1=O` (stereo unspecified), the TGI in the test with HCC-2998 colon is above 1160 µM; in the test with HCT-116 colon it was 605 µM; in the test on HCT-15 colon, 846 µM; with LOX IMVI melanoma, 279 µM; in the test with NCI-H226 lung it was 583 µM; in the test on OVCAR-3 ovarian it was above 1160 µM. Moreover, the TGI in the test on TK-10 renal worked out at 1050 µM; with U251 CNS, 305 µM; in the test on UO-31 renal it was 1250 µM.
